20 compounds from patent US12453731B2, “Aniline-based WDR5 protein-protein interaction inhibitor, and preparation method and use thereof” (CHINA PHARMACEUTICAL UNIVERSITY, priority 2019, dated 2025) can be followed below.

Where two headings read alike, the source gives them in different places.

One experiment deals with MLL1-WDR5 PPI (Homo sapiens (Human), UniProt P61964). The experiment is described as follows: fluorescent probe assay of MLL1-WDR5 protein-protein interaction inhibition. The format is binding. The note with it: fluorescent probe based on MLL1 peptide, incubation 0.5 hrs, read-out: MLL1-WDR5 PPI inhibiting activity IC50. How it is done: In the present disclosure, a fluorescent molecular probe was constructed based on a MLL1 peptide fragment binding to WDR5, for use as a method for study on an aniline compound interfering with WDR5 protein-protein interaction, to determine an inhibition rate of the aniline compound at various concentrations, and then compute the IC50 value. Specific experimental steps: 20 μL of WDR5 protein, 20 μL of a fluorescent probe, and 20 μL of a compound of different concentration gradients were added to a 384-well plate respectively. After incubation for 0.5 hrs, the fluorescence was read on a multifunctional microplate reader at an excitation wavelength of 485 nm and an emission wavelength of 535 nm, to compute the mP value. The inhibition rate was computed as per the formula below, and then the IC50 value was computed using GraphPad software.

Experiment [1] has as its system methylation level of H3K4. The experiment is described as follows: inhibition of the methylation level of H3K4 (methyltransferase activity). The experiment is classed as biochemical.
Experiment [2] has as its system MV4-11 human acute mononuclear leukemia cells. The experiment is described as follows: anti-proliferative activity against leukemia cells MV4-11. The format is cell-based. Conditions: read-out: GI50 (MV-411). From the text: (§1) Some compounds of the present disclosure have also been tested for the antiproliferative activity against leukemia cells.
Experiment [3] has as its system Molm-13 human acute myeloid leukemia cells. The experiment is described as follows: anti-proliferative activity against leukemia cells Molm-13. The experiment is classed as cell-based.
From the text: as §1

Setting [4] is: Homo sapiens, MV4-11, MV4-11 cells.
The mark [5] stands for this setting: Homo sapiens, MOLM-13, Molm-13 cells.

Broadly, the IC50 is the midpoint of a concentration-inhibition curve. The term GI50 denotes the concentration giving 50% growth inhibition.

`Cc1c(F)c(N)cc(C(=O)Nc2cc(-c3ccc(N)cc3)ccc2N2CCN(C)CC2)c1Cl` [DDO-2084, reference compound]: the IC50 on MLL1-WDR5 PPI amounted to 338 µM. For the same compound, the “Whether the methylation level of H3K4 was inhibited” value in experiment [1] is “Yes”. In addition, in experiment [2] (MV4-11 cells), the GI50 was found to be 17.7 ± 2.3 µM.

`CN1CCN(c2ccc(-c3ccc(C(=O)N4CCOCC4)cc3)cc2Nc2ncnc(Cl)c2N)CC1` [Example 23, (3″-((5-amino-6-chloropyrimidin-4-yl)amino)-4-(4-methylpiperazin-1-yl)-[1,1′-biphenyl]-4-yl)(morpholino)methanone]: the IC50 at MLL1-WDR5 PPI was 0.186 µM. In experiment [1], the “Whether the methylation level of H3K4 was inhibited” value is listed as “Yes”. In addition, the results for the GI50 in experiment [2] (setting [4]) and in experiment [3] (setting [5]) were 16.7 µM and 23.4 µM, respectively.

Turning to `CN1CCN(c2ccc(-c3ccc(C(=O)NCCN4CCOCC4)cc3)cc2Nc2ncnc(Cl)c2N)CC1` [Example 24, 3″-((5-amino-6-chloropyrimidin-4-yl)amino)-4″-(4-methylpiperazin-1-yl)-N-(2-morpholinoethyl)-[1,1′-biphenyl]-zole-4-carboxamide], the IC50 on MLL1-WDR5 PPI was 0.183 µM. Also, the “Whether the methylation level of H3K4 was inhibited” value in experiment [1] is on record as “Yes”. Moreover, the GI50 was determined as 11 µM in experiment [2] (setting [4]) and 17.6 µM in experiment [3] (setting [5]).

Take `CN1CCN(c2ccc(-c3ccc(C(=O)NCCCN4CCOCC4)cc3)cc2Nc2ncnc(Cl)c2N)CC1` [Example 25, 3″-((5-amino-6-chloropyrimidin-4-yl)amino)-4″-(4-methylpiperazin-1-yl)-N-(3-morpholinopropyl)-[1,1′-biphenyl]-zole-4-carboxamide]: the IC50 at MLL1-WDR5 PPI stood at 0.165 µM. Besides, the “Whether the methylation level of H3K4 was inhibited” value in experiment [1] is “Yes”. The GI50 in experiment [2] (setting [4]) was found to be 24.9 µM; in experiment [3] (setting [5]) it was 20.8 µM.

For the compound `CN1CCN(c2ccc(-c3ccc(C(=O)N(C)C)cc3)cc2Nc2ncnc(Cl)c2N)CC1` [Example 26, 3″-((5-amino-6-chloropyrimidin-4-yl)amino)-N,N-dimethyl-4″-(4-methylpiperazin-1-yl)-[1,1′-biphenyl]-4-carboxamide], the IC50 at MLL1-WDR5 PPI is 0.36 µM. Further, the “Whether the methylation level of H3K4 was inhibited” value in experiment [1] is on record as “Yes”. Also, the GI50 in experiment [2] (setting [4]) came out at 48.6 µM; in experiment [3] (setting [5]), 30.7 µM.

For `CN1CCN(C(=O)c2ccc(-c3ccc(N4CCN(C)CC4)c(Nc4ncnc(Cl)c4N)c3)cc2)CC1` [Example 27, (3″-((5-amino-6-chloropyrimidin-4-yl)amino)-4″-(4-methylpiperazin-1-yl)-[1,1′-biphenyl]-4-yl)(4-methylpiperazin-1-yl) methanone], the IC50 at MLL1-WDR5 PPI came to 0.217 µM. Further, the “Whether the methylation level of H3K4 was inhibited” value in experiment [1] is on record as “Yes”. The GI50 in experiment [2] (setting [4]) turned out to be 39.2 µM; in experiment [3] (setting [5]) it was 34 µM.

`CN(C)CCCNC(=O)c1ccc(-c2ccc(N3CCN(C)CC3)c(Nc3ncnc(Cl)c3N)c2)cc1` [Example 28, 3″-((5-amino-6-chloropyrimidin-4-yl)amino)-N-(3-(dimethylamino)propyl)-4″-(4-methylpiperazin-1-yl)-[1,1′-biphenyl]-4-carboxamide]: on MLL1-WDR5 PPI, the IC50 came out at 0.27 µM. The “Whether the methylation level of H3K4 was inhibited” value in experiment [1] is reported as “Yes”. In addition, the GI50 stood at 29.7 µM in experiment [2] (setting [4]) and 24.3 µM in experiment [3] (setting [5]).

As to `CN1CCN(c2ccc(-c3ccc(C(=O)NCCN4CCCC4)cc3)cc2Nc2ncnc(Cl)c2N)CC1` [Example 29, 3″-((5-amino-6-chloropyrimidin-4-yl)amino)-4″-(4-methylpiperazin-1-yl)-N-(2-(pyrrolidin-1-yl)ethyl)-[11,1′-biphenylyl]-4-carboxamide], the IC50 on MLL1-WDR5 PPI was determined as 0.37 µM. Further, the “Whether the methylation level of H3K4 was inhibited” value in experiment [1] was “Yes”. For the same compound, the GI50 in experiment [2] (setting [4]) turned out to be 16.6 µM; in experiment [3] (setting [5]) it was 18.2 µM.

Consider `CN1CCN(c2ccc(-c3ccc(C(=O)NCCCO)cc3)cc2Nc2ncnc(Cl)c2N)CC1` [Example 30, 3″-((5-amino-6-chloropyrimidin-4-yl)amino)-N-(3-hydroxylpropyl)-4″-(4-methylpiperazin-1-yl)-[1,1′-biphenyl]-zole-4-carboxamide], for which, at MLL1-WDR5 PPI, the IC50 is 0.31 µM. Further, the “Whether the methylation level of H3K4 was inhibited” value in experiment [1] is recorded as “Yes”. The GI50 in experiment [2] (setting [4]) worked out at 27.3 µM; in experiment [3] (setting [5]) it was 32.6 µM.

Regarding `CC(C)NC(=O)c1ccc(-c2ccc(N3CCN(C)CC3)c(Nc3ncnc(Cl)c3N)c2)cc1` [Example 31, 3″-((5-amino-6-chloropyrimidin-4-yl)amino)-N-isopropyl-4″-(4-methylpiperazin-1-yl)-[1,1′-biphenyl]-4-carboxamide], the IC50 on MLL1-WDR5 PPI came to 0.46 µM. For the same compound, the “Whether the methylation level of H3K4 was inhibited” value in experiment [1] is reported as “Yes”. Moreover, the GI50 in experiment [2] (setting [4]) was determined as 10.5 µM; in experiment [3] (setting [5]), 18.8 µM.

With `CN1CCN(c2ccc(-c3ccc(N)cc3)cc2Nc2ncnc(Cl)c2N)CC1` [Example 32, N^4-(4′-amino-4-(4-methylpiperazin-1-yl)-[1,1′-biphenyl]-3-yl)-6-chloropyrimidine-e-4,5-diamine], at MLL1-WDR5 PPI, the IC50 was determined as 0.691 µM. For the same compound, the “Whether the methylation level of H3K4 was inhibited” value in experiment [1] was “Yes”. Besides, the GI50 in experiment [2] (setting [4]) was found to be 40 µM; in experiment [3] (setting [5]), 27.2 µM.

Consider `CN1CCN(c2ccc(-c3ccc(NC(=O)C4CCOCC4)cc3)cc2Nc2ncnc(Cl)c2N)CC1` [Example 33, N-(3″-((5-amino-6-chloropyrimidin-4-yl)amino)-4″-(4-methylpiperazin-1-yl)-[1,1′-biphenyl]-4-yl)tetrahydro-2H-pyran-4-carboxamide], for which the IC50 at MLL1-WDR5 PPI came to 0.489 µM. For the same compound, in experiment [1], the “Whether the methylation level of H3K4 was inhibited” value is given as “Yes”. The results for the GI50 in experiment [2] (setting [4]) and in experiment [3] (setting [5]) were 25.9 µM and 22.7 µM, respectively.

For `CN1CCC(C(=O)Nc2ccc(-c3ccc(N4CCN(C)CC4)c(Nc4ncnc(Cl)c4N)c3)cc2)CC1` [Example 34, N-(3″-((5-amino-6-chloropyrimidin-4-yl)amino)-4″-(4-methylpiperazin-1-yl)-[1,1′-biphenyl]-4-yl)-1-methylpiperidin-4-carboxamide], the IC50 on MLL1-WDR5 PPI turned out to be 0.287 µM. Moreover, the “Whether the methylation level of H3K4 was inhibited” value in experiment [1] is “Yes”. Also, the GI50 came to 23.2 µM in experiment [2] (setting [4]) and 20.8 µM in experiment [3] (setting [5]).

`CN1CCN(c2ccc(-c3ccc(NC(=O)C4CCCCC4)cc3)cc2Nc2ncnc(Cl)c2N)CC1` [Example 35, N-(3″-((5-amino-6-chloropyrimidin-4-yl)amino)-4″-(4-methylpiperazin-1-yl)-[1,1′-biphenyl]-4-yl)cyclohexanecarboxamide]: the IC50 on MLL1-WDR5 PPI turned out to be 0.372 µM. Further, in experiment [1], the “Whether the methylation level of H3K4 was inhibited” value is given as “Yes”. Moreover, the GI50 was determined as 2.07 µM in experiment [2] (setting [4]) and 6.16 µM in experiment [3] (setting [5]).

Regarding `CCCC(=O)Nc1ccc(-c2ccc(N3CCN(C)CC3)c(Nc3ncnc(Cl)c3N)c2)cc1` [Example 36, N-(3″-((5-amino-6-chloropyrimidin-4-yl)amino)-4″-(4-methylpiperazin-1-yl)-[1,1′-biphenyl]-4-yl)butyramide], the IC50 at MLL1-WDR5 PPI stood at 0.261 µM. The “Whether the methylation level of H3K4 was inhibited” value in experiment [1] is reported as “Yes”. Moreover, the GI50 in experiment [2] (setting [4]) was 9.32 µM; in experiment [3] (setting [5]), 12.5 µM.

As to `CN1CCN(c2ccc(-c3ccncc3)cc2Nc2ncnc(Cl)c2N)CC1` [Example 45, 6-chloro-N^4-(2-(4-methylpiperazin-1-yl)-5-(pyridin-4-yl)phenyl)pyrimidine-4,5-diamine], at MLL1-WDR5 PPI, the IC50 came to 0.56 µM. Further, the GI50 in experiment [2] (setting [4]) was 27.3 µM; in experiment [3] (setting [5]), 23.2 µM.

In the case of `CN1CCN(c2ccc(-n3cc(C(=O)N(C)C)nn3)cc2Nc2ncnc(Cl)c2N)CC1` [Example 50, 1-(3-((5-amino-6-chloropyrimidin-4-yl)amino)-4-(4-methylpiperazin-1-yl)phenyl)-N,N-dimethyl-1H-1,2,3-triazole-4-carboxamide], in experiment [1], the “Whether the methylation level of H3K4 was inhibited” value is given as “Yes”. Also, the GI50 in experiment [2] (setting [4]) was 29.6 µM; in experiment [3] (setting [5]) it was 35.5 µM.

In the case of `CN1CCN(c2ccc(-n3cc(C(=O)N(C)C)nn3)cc2Nc2ncnc(Cl)c2N)CC1` [Example 51, 1-(3-((5-amino-6-chloropyrimidin-4-yl)amino)-4-(4-methylpiperazin-1-yl)phenyl)-N,N-dimethyl-1H-1,2,3-triazole-4-carboxamide], in experiment [1], the “Whether the methylation level of H3K4 was inhibited” value is on record as “Yes”. In addition, the GI50 in experiment [2] (MV4-11 cells) was determined as 38 µM; in experiment [3] (Molm-13 cells), 39 µM.

For the compound `COC(=O)c1ccc(-c2cc(Nc3ncnc(Cl)c3N)c(N3CCN(C)CC3)cc2F)cc1` [Example 66, Methyl 5′-((5-amino-6-chloropyrimidin-4-yl)amino)-2′-fluoro-4′-(4-methylpiperazin-1-yl)-[1,1′-biphenyl]-4-carboxylate], the IC50 at MLL1-WDR5 PPI was found to be 0.04 µM. Besides, the “Whether the methylation level of H3K4 was inhibited” value in experiment [1] is recorded as “Yes”. In addition, in experiment [2] (setting [4]), the GI50 was found to be 14.4 µM.

`Cc1cc(N2CCN(C)CC2)c(Nc2ncnc(Cl)c2N)cc1-c1ccc(C(=O)NCCCN2CCOCC2)cc1` [Example 74, 5″-((5-amino-6-chloropyrimidin-4-yl)amino)-2′-methyl-4″-(4-methylpiperazin-1-yl)-N-(3-morpholinopropyl)-[1,11,1′-terphenyl]-4-carboxamide]: the IC50 at MLL1-WDR5 PPI is 0.465 µM. In experiment [1], the “Whether the methylation level of H3K4 was inhibited” value is given as “Yes”.
